# From US11091428B2 (HAPLOGEN GMBH, priority 2016, dated 2021)
# Assays:
# PLA2G16 = target: T1, PLA2G16 (Homo sapiens, UniProt P53816); assay: Enzyme activity assay for PLA2G16 (Red/Green BODIPY PC-A2 fluorescence); format: biochemical; settings: His-tagged PLA2G16, 4 min pre-incubation, 2 nM to 50 μM; read-out: IC50 values of the compounds determined in the enzyme activity assay for PLA2G16
# T1 construct: Hexa-His (N); made in house; host or cells: E. coli BL21(DE3)
# T1 sequence (P53816 1-162): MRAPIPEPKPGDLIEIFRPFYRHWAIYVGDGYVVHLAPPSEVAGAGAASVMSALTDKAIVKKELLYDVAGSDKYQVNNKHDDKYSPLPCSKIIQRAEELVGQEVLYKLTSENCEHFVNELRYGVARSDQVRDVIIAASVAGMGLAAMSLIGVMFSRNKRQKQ
# How it was run: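 N-His-tagged human PLA2G16 from E. coli, Ni-NTA purified. Pre-incubated 4 min with compound (2 nM–50 μM final) in pH 8.5 Tris/NaCl buffer with 5 mM glutathione, then BODIPY PC-A2 in DOPC/DOPG/cholesterol vesicles added. Fluorescence (ex 480/em 530 nm) increase over 10 min taken as activity; IC50 by non-linear regression.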
# [1] = test system: picornaviruses (CVB1, HRV-A2, HRV-A23, EV-68); assay: Anti-picornavirus cytopathic effect (CPE) reduction assay on HeLa H1 cells; format: cell-based; settings: Enterovirus B, HeLa H1, 48 h, HeLa H1 cells, 48 h, category from averaging the EC50 values from four picornaviruses (CVB1, HRV-A2, HRV-A23, EV68); read-out: EC50 values of the compounds determined in the anti-picornavirus assay
# How it was run: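 HeLa H1 cells pre-treated 2 h with serially diluted compound in DMEM/2% FBS, then infected at an MOI giving full CPE in 2 days. After 48 h at 37° C, viability read by CellTiterBlue fluorescence (ex 560/em 590 nm), normalised to infected and uninfected vehicle controls; EC50 by non-linear regression, category from mean of four viruses.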
structure (smiles),measurement,setting,value
"CC(C)C(=O)N1CCC(CN(C=O)C(C)C(=O)C(=O)NCC2CCCCC2)CC1 (centres unmarked) [FP 78, N-(Cyclohexylmethyl)-3-(AN{[1-(2-methylpropanoyl)piperidin-4-yl]methyl}formamido)-2-oxobutanamide]",IC50,PLA2G16,1 to 10 µM
same,EC50,[1],> 10 µM
"CC(=O)N1CCC(CN(C=O)C(C)C(=O)C(=O)NCC2CCCCC2)CC1 (centres unmarked) [FP 79, 3-{N-[(1-Acetylpiperidin-4-yl)methyl]formamido}-N-(cyclohexylmethyl)-2-oxobutanamide]",IC50,PLA2G16,1 to 10 µM
same,EC50,[1],> 10 µM
"CC(C(=O)C(=O)NCC1CC1)N(C=O)CC1CCN(C(=O)c2ccccc2)CC1 (centres unmarked) [FP 80, 3-{N[(1-Benzoylpiperidin-4-yl)methyl]formamido}-N-(cyclopropylmethyl)-2-oxobutanamide]",IC50,PLA2G16,1 to 10 µM
same,EC50,[1],> 10 µM
"CC(C(=O)C(=O)NCC1CC1)N(C=O)CC1CCN(C(=O)C2CCCCC2)CC1 (centres unmarked) [FP 81, 3-{N-[(1-Cyclohexanecarbonylpiperidin-4-yl)methyl]formamido}-N-(cyclopropylmethyl)-2-oxobutanamide]",IC50,PLA2G16,1 to 10 µM
same,EC50,[1],> 10 µM
"COc1ccccc1N(C=O)C(C)C(=O)C(=O)NCc1cccnc1 (centres unmarked) [FP 89, 3-[N-(2-Methoxyphenyl)formamido]-2-oxo-A[(pyridin-3-yl)methyl]butanamide]",IC50,PLA2G16,< 1 µM
same,EC50,[1],> 10 µM
"COc1ccccc1N(C=O)C(C)C(=O)C(=O)NCc1ccncc1 (centres unmarked) [FP 90, 3-[N-(2-Methoxyphenyl)formamido]-2-oxo-N-[(pyridin-4-yl)methyl]butanamide]",IC50,PLA2G16,< 1 µM
same,EC50,[1],> 10 µM
"COc1ccccc1N(C=O)C(C)C(=O)C(=O)NCc1ccc(Cl)cc1 (centres unmarked) [FP 91, N-[(4-Chlorophenyl)methyl]-3-[N-(2-methoxyphenyl)formamido]-2-oxobutanamide]",IC50,PLA2G16,< 1 µM
same,EC50,[1],< 1 µM
"COc1ccc(CNC(=O)C(=O)C(C)N(C=O)c2ccccc2OC)cc1 (centres unmarked) [FP 92, 3-[N-(2-Methoxyphenyl)formamido]-N-[(4-methoxyphenyl)methyl]-2-oxobutanamide]",IC50,PLA2G16,< 1 µM
same,EC50,[1],1 to 10 µM
"COc1ccccc1N(C=O)C(C)C(=O)C(=O)NCc1ccc(F)c(Cl)c1 (centres unmarked) [FP 93, N-[(3-Chloro-4-fluorophenyl)methyl]-3-[A (2-methoxyphenyl)formamido]-2-oxobutanamide]",IC50,PLA2G16,< 1 µM
same,EC50,[1],< 1 µM
"COc1ccccc1N(C=O)C(C)C(=O)C(=O)NCc1cc(F)cc(Cl)c1 (centres unmarked) [FP 94, N-[(3-Chloro-5-fluorophenyl)methyl]-3-[N-(2-methoxyphenyl)formamido]-2-oxobutanamide]",IC50,PLA2G16,< 1 µM
same,EC50,[1],< 1 µM
"COc1ccccc1CNC(=O)C(=O)C(C)N(C=O)c1ccccc1OC (centres unmarked) [FP 95, 3-[N-(2-Methoxyphenyl)formamido]-N-[(2-methoxyphenyl)methyl]-2-oxobutanamide]",IC50,PLA2G16,< 1 µM
same,EC50,[1],1 to 10 µM
"COc1ccccc1N(C=O)C(C)C(=O)C(=O)NCc1ccccn1 (centres unmarked) [FP 96, 3-[N-(2-Methoxyphenyl)formamido]-2-oxo-N-[(pyridin-2-yl)methyl]butanamide]",IC50,PLA2G16,< 1 µM
same,EC50,[1],> 10 µM
"COc1ccccc1N(C=O)C(C)C(=O)C(=O)NCCc1cccc(Cl)c1 (centres unmarked) [FP 97, N-[2-(3-Chlorophenyl)ethyl]-3-[N-(2-methoxyphenyl)formamido]-2-oxobutanamide]",IC50,PLA2G16,< 1 µM
same,EC50,[1],< 1 µM
"COc1ccccc1N(C=O)C(C)C(=O)C(=O)NCc1ccccc1C (centres unmarked) [FP 98, 3-[N-(2-Methoxyphenyl)formamido]-N-[(2-methylphenyl)methyl]-2-oxobutanamide]",IC50,PLA2G16,< 1 µM
same,EC50,[1],1 to 10 µM
"COc1ccccc1N(C=O)C(C)C(=O)C(=O)NCc1c(C)cccc1C (centres unmarked) [FP 99, N-[(2,6-Dimethylphenyl)methyl]-3-[N-(2-methoxyphenyl)formamido]-2-oxobutanamide]",IC50,PLA2G16,< 1 µM
same,EC50,[1],1 to 10 µM
"COc1ccccc1N(C=O)C(C)C(=O)C(=O)NCC(C)C (centres unmarked) [FP 100, 3-[N-(2-Methoxyphenyl)formamido]-N-(2-methylpropyl)-2-oxobutanamide]",IC50,PLA2G16,< 1 µM
same,EC50,[1],1 to 10 µM
"COc1ccccc1N(C=O)C(C)C(=O)C(=O)NCC(C)(C)C (centres unmarked) [FP 101, N-(2,2-Dimethylpropyl)-3-[N-(2-methoxyphenyl)formamido]-2-oxobutanamide]",IC50,PLA2G16,< 1 µM
same,EC50,[1],1 to 10 µM
"CC[C@@H](C)NC(=O)C(=O)C(C)N(C=O)c1ccccc1OC (stereo partly drawn) [FP 102, N-[(2R)-Butan-2-yl]-3-[N-(2-methoxyphenyl)formamido]-2-oxobutanamide]",IC50,PLA2G16,< 1 µM
same,EC50,[1],1 to 10 µM
"COc1ccccc1N(C=O)C(C)C(=O)C(=O)NCc1cnccn1 (centres unmarked) [FP 104, 3-[N-(2-Methoxyphenyl)formamido]-2-oxo-N-[(pyrazin-2-yl)methyl]butanamide]",IC50,PLA2G16,1 to 10 µM
same,EC50,[1],> 10 µM
"COc1ccccc1N(C=O)C(C)C(=O)C(=O)NCC1CC1 (centres unmarked) [FP 105, N-(Cyclopropylmethyl)-3-[N-(2-methoxyphenyl)formamido]-2-oxobutanamide]",IC50,PLA2G16,< 1 µM
same,EC50,[1],1 to 10 µM
"CC[C@H](C)NC(=O)C(=O)C(C)N(C=O)c1ccccc1OC (stereo partly drawn) [FP 106, N-[(2S)-Butan-2-yl]-3-[N-(2-methoxyphenyl)formamido]-2-oxobutanamide]",IC50,PLA2G16,< 1 µM
same,EC50,[1],1 to 10 µM
"COc1ccccc1N(C=O)C(C)C(=O)C(=O)N[C@H](C)C(C)C (stereo partly drawn) [FP 107, 3-[N-(2-Methoxyphenyl)formamido]-N-[(2R)-3-methylbutan-2-yl]-2-oxobutanamide]",IC50,PLA2G16,< 1 µM
same,EC50,[1],1 to 10 µM
"COc1ccccc1N(C=O)C(C)C(=O)C(=O)N[C@@H](C)C(C)C (stereo partly drawn) [FP 108, 3-[N-(2-Methoxyphenyl)formamido]-N-[(2S)-3-methylbutan-2-yl]-2-oxobutanamide]",IC50,PLA2G16,< 1 µM
same,EC50,[1],< 1 µM
"CC(C(=O)C(=O)NCCOc1ccccc1)N(C=O)C1CCCCC1 (centres unmarked) [FP 109, 3-(N-Cyclohexylformamido)-2-oxo-N-(2-phenoxyethyl)butanamide]",IC50,PLA2G16,< 1 µM
same,EC50,[1],< 1 µM
"CC(C(=O)C(=O)NCC(F)(F)F)N(C=O)C1CCCCC1 (centres unmarked) [FP 110, 3-(N-Cyclohexylformamido)-2-oxo-N-(2,2,2-trifluoroethyl)butanamide]",IC50,PLA2G16,< 1 µM
same,EC50,[1],1 to 10 µM
"CC(C(=O)C(=O)NCC(F)F)N(C=O)C1CCCCC1 (centres unmarked) [FP 111, 3-(N-Cyclohexylformamido)-N-(2,2-difluoroethyl)-2-oxobutanamide]",IC50,PLA2G16,< 1 µM
same,EC50,[1],> 10 µM
"CC(C(=O)C(=O)NCCC1CCOCC1)N(C=O)C1CCCCC1 (centres unmarked) [FP 112, 3-(N-Cyclohexylformamido)-N-[2-(oxan-4-yl)ethyl]-2-oxobutanamide]",IC50,PLA2G16,< 1 µM
same,EC50,[1],1 to 10 µM
"CC(C(=O)C(=O)NCCOc1ccc(C(N)=O)cc1)N(C=O)C1CCCCC1 (centres unmarked) [FP 114, 4-{2-[3-(N-Cyclohexylformamido)-2-oxobutanamido]ethoxy}benzamide]",IC50,PLA2G16,< 1 µM
same,EC50,[1],> 10 µM
"COc1ccccc1N(C=O)CCC(=O)C(=O)NCc1cccc(Cl)c1 [FP 115, N-[(3-Chlorophenyl)methyl]-4-[N-(2-methoxyphenyl)formamido]-2-oxobutanamide]",IC50,PLA2G16,< 1 µM
same,EC50,[1],1 to 10 µM
"O=CN(Cc1ccccc1)[C@@H](Cc1cn(C(c2ccccc2)(c2ccccc2)c2ccccc2)cn1)C(=O)C(=O)NCC1CCCCC1 [FP 116, (3S)-3-(N-Benzylformamido)-N-(cyclohexylmethyl)-2-oxo-4-[1-(triphenylmethyl)-1H-imidazol-4-yl]butanamide]",IC50,PLA2G16,< 1 µM
same,EC50,[1],< 1 µM
"O=CN(Cc1ccccc1)[C@@H](Cc1cn(C(c2ccccc2)(c2ccccc2)c2ccccc2)cn1)C(=O)C(=O)NCC1CC1 [FP 117, (3S)-3-(N-Benzylformamido)-N-(cyclopropylmethyl)-2-oxo-4-[1-(triphenylmethyl)-1H-imidazol-4-yl]butanamide]",IC50,PLA2G16,< 1 µM
same,EC50,[1],< 1 µM
"O=CN(Cc1ccccc1)[C@@H](Cc1c[nH]cn1)C(=O)C(=O)NCC1CCCCC1 [FP 118, (3S)-3-(N-Benzylformamido)-N-(cyclohexylmethyl)-4-(1H-imidazol-4-yl)-2-oxobutanamide]",IC50,PLA2G16,< 1 µM
same,EC50,[1],1 to 10 µM
"O=CN(Cc1ccccc1)[C@@H](Cc1c[nH]cn1)C(=O)C(=O)NCC1CC1 [FP 119, (3S)-3-(N-Benzylformamido)-N-(cyclopropylmethyl)-4-(1H-imidazol-4-yl)-2-oxobutanamide]",IC50,PLA2G16,< 1 µM
same,EC50,[1],> 10 µM
"CC(OC1CCCCC1)C(=O)C(=O)NCC1CC1 (centres unmarked) [FP 120, 3-(Cyclohexyloxy)-N-(cyclopropylmethyl)-2-oxobutanamide]",IC50,PLA2G16,< 1 µM
same,EC50,[1],< 1 µM
"CC(OCC1CCOCC1)C(=O)C(=O)NCC1CC1 (centres unmarked) [FP 121, N-(Cyclopropylmethyl)-3-[(oxan-4-yl)methoxy]-2-oxobutanamide]",IC50,PLA2G16,< 1 µM
same,EC50,[1],1 to 10 µM
"CC(OCC(C)(C)C)C(=O)C(=O)NCC1CC1 (centres unmarked) [FP 122, N-(Cyclopropylmethyl)-3-(2,2-dimethylpropoxy)-2-oxobutanamide]",IC50,PLA2G16,1 to 10 µM
same,EC50,[1],1 to 10 µM
"CC(C)CNC(=O)C(=O)C(C)OC1CCCCC1 (centres unmarked) [FP 124, 3-(Cyclohexyloxy)-N-(2-methylpropyl)-2-oxobutanamide]",IC50,PLA2G16,< 1 µM
same,EC50,[1],< 1 µM
